Measured values reported in patent US20090011975A1, “TARGETED BONE MARROW PROTECTION AGENTS” (Semafore Pharmaceuticals Inc., priority 2003, published 2009).
Like-named read-outs stand apart in the source and are kept apart here.

Columns and labels:
[1] = Reversibility of acyl methylenes in phosphate buffer; type: physicochemical; settings: 50 mM phosphate buffer
Method: A prodrug strategy was devised using cyclized PFT-β and a structure activity relationship to obtain a prodrug linkage that converts to the native drug with about a 3 day half-life. A key novel intermediate (BI) (the chemical structure of which is set forth in FIG. 22) was generated in greater than 90% yield and >95% purity. […] This allowed preparation of the acyl methylene compounds recited in Table 2. All of the compounds of Table 2 were diluted into 50 mM phosphate buffer at pH=7.4 and pH=4.8 at room temperature and analyzed over time for stability. The amount of PFT-β was quantitated, and the amount of acyl methylene disappearing over time was quantitated by LCMS. A half-life for the cleavage of the acyl methylenes to generate PFT-β under relevant physiological conditions was determined. These half lives are set forth in Table 2 associated with the structures.

[2] = Liberation of PFT-β from hydroxyapatite-bound (BH) over time; type: physicochemical
Method: The hydroxyapatite of the suspension was then resuspended in wash number 2 supernatant by pipetting up and down. A 20 μL aliquot of the resulting 900 μL suspension was removed and extracted with methanol. An analysis of the methanol extract by LCMS (versus a standard of (BH)) indicated no detectable (BH) was extractable from the hydroxyapatite sample known to contain the 1.26 μMoles of (BH) described above. […] The suspension was then gently rocked for 34 hours. A 20 μL aliquot was removed and analyzed after extraction with methanol. […] An addition aliquot of the gently mixed suspension was obtained after a total 153 hours contained no detectable, extractable (BH).

[3] = Affinity of bone targeting agents to hydroxyapatite (supernatant LCMS); type: binding; settings: 0.100 mM test solution in TBS pH 7.40, HA suspension 1.00 or 10.0 mg/ml, 1 hour (FIG. 25)
Method: To determine the affinity of the bone targeting agents to hydroxyapatite, the method described in Willson et al., Biorganic & Medicinal Chemistry Letters, 6(9), 1043-1046 (1996) for determining bone affinity using HPLC retention on a hydroxyapatite column was modified. The affinity of several bone targeting agents was determined using the following method. […] The suspension was diluted to prepare a 1.00 mg/ml HA suspension by stirring on a magnetic stir plate at the slowest speed necessary to create a uniform suspension appropriate for sampling. Each tested compound was dissolved in TBS at a concentration of 0.100 mM. 200 μl of test solution was mixed with 200 μl of TBS, HA at 1.00 mg/ml, or HA at 10.0 mg/ml, and agitated on an orbital shaker at 200 rpm for 1 hour. Each experiment was performed in triplicate. The supernatant solution was analyzed using single ion monitoring (SIM) mass spectral mode on a Shimadzu LCMS-2010 liquid chromatograph-mass spectrometer. The SIM counts in the test compound/TBS solutions were set at 100%. The amount of test compound present in the HA supernatant test solutions was expressed as a percentage of the amount of test compound available with no hydroxyapatite present. Tetracycline was included as a positive control.

[4] = Binding of (BH) to hydroxyapatite and resistance to washing
Method: The final conjugate (BH) (see Table 2) was synthesized (assembled) as described and purified by HPLC. […] A 900 μL aliquot of 1.9 mM (BH) in 5 mM phosphate buffer at pH=7 was mixed with 100 μL of an hydroxyapatite suspension (25 weight percent hydroxyapatite; Sigma) containing approximately 25 mg of hydroxyapatite. The suspension was mixed gently for 15 minutes and then centrifuged at 10,000 rpm for one minute. A 100 μL aliquot was removed and analyzed by electrospray LCMS and compared to a standard solution that had not been exposed to hydroxyapatite. […] The supernatant was decanted from the hydroxyapatite solid, an additional 900 μL of de-ionized water was added, and the mix was shaken vigorously for 20 seconds. The suspension was then centrifuged at 10,000 rpm for one minute. A 100 μL aliquot of suspension was removed and analyzed by electrospray LCMS and compared to the standard solution that had not been exposed to hydroxyapatite. […] The supernatant was decanted from the hydroxyapatite solid, an additional 900 μL of de-ionized water was added, and the mix was shaken vigorously for 20 seconds. The suspension was then centrifuged at 10,000 rpm for one minute. A 100 μL aliquot was removed and analyzed by electrospray LCMS and compared to the standard solution. […] Thus, of the original 1.74 μMoles of (BH) present in the supernatant and exposed to the hydroxyapatite, a total of 0.48 μMoles was recovered in the original supernatant plus the two water washes.

[5] = Conversion of PFT-α to PFT-β in human serum; type: in vitro ADME; settings: for peak area (254 nm), Human Serum Stability: PFT-α initially 50 μMolar, 37° C.
Method: (§1) A 10.0 mMolar solution of PFT-α in DMSO was prepared. A 5 μL aliquot of the solution was diluted with 495 μL of methanol, and further diluted with 500 μL of acetonitrile to produce a comparison standard 50 μMolar solution. Five 5 μL aliquots of 10.0 mMolar solution of PFT-α in DMSO was added to each of five plastic vials containing 495 μL of human serum (Sigma-Aldrich), and the vials were capped. The solution was mixed thoroughly and allowed to stand at 37° C. At different timepoints, each of the 5 vials were removed from heat, cooled to room temperature, and the solution was diluted with 500 μL of acetonitrile to precipitate proteins and nondesirable solutes. Each mixture was vortexed vigorously, passed through a 0.2 um Whatman Uniprep sample filter device, and analyzed by LC-MS (the methods of which are described in Example 12). The UV areas for the peak corresponding to PFT-α (retention time=1.8 minutes) and for the peak corresponding to PFT-β (retention time=3.9 minutes) were tabulated.

[6] = tested on: C8 cells (mouse embryo fibroblasts transformed with E1a+ras); settings: cited from earlier work
[7] = Conversion of PFT-α to PFT-β in phosphate buffer pH 7.4; type: physicochemical; settings: for peak area (254 nm), Phosphate Buffer pH = 7.4 Stability: PFT-α initially 50 μMolar, 37° C.
Method: as §1
The method set forth above was repeated wherein 50 mMolar phosphate buffer (pH=7.4) was substituted for human serum.

[8] = tested on: C57BL strain and Balb/c strain mice; settings: cited from earlier work
p53-null mice = settings: PFT-α injections; cited from earlier work
[9] = tested on: p53-mediated transcription; assay: p53-mediated transcription, MASPIN promoter-luciferase in HBECs; type: cell-based, human; settings: PFT-β liberated from (BH) on hydroxyapatite, HBECs transfected with wild type p53 plasmid (FIG. 27)
Method: The binding to hydroxyapatite to the bone targeted prodrug (BH) and its conversion over time to liberate PFT-β was described in Example 10. The PFT-β liberated (5.11 millimolar solution from Example 10) was assayed for its biological activity by evaluating the degree of p53-mediated transcription in the presence and absence of the liberated PFT-β. The assay comprised transiently transfecting human brain endothelial cells (HBECs) with a plasmid comprising the MASPIN promoter, which contains two p53 binding sites, operably linked to the luciferase gene. A group of HBECs was transiently transfected with a plasmid encoding wild type p53. Thus, if p53 produced in the transfected HBECs is active, transcription of the luciferase gene will be activated and the produced luciferase detected. p53-mediated transcription is measured relative to the internal control plasmid pCMVβ-galactosidase to control for transfection efficiency.
The results of the assay are set forth in the bar graph of FIG. 27, the data of which represents fold induction of p53-specific transcriptional activity in HBECs. Column 1 of FIG. 27 represents a negative control resulting from HBECs not transfected with the wild type p53 plasmid. Column 2 of FIG. 27 represents data obtained from HBECs transfected with the wild type p53 plasmid which were not exposed to PFT-β. […]

Aqueous solubility = type: physicochemical
[10] = pH 4.8, room temperature, read-out: Half Life pH = 4.8
[11] = pH 7.4, room temperature, read-out: Half Life pH = 7.4 (converted)

Compound | half-life at 100 µM [1, 10] [days] | half-life at 100 µM [1, 11] [days] | affinity to hydroxyapatite [3] | peak area (254 nm), Human Serum Stability ([5]; 0 hours) | peak area (254 nm), Human Serum Stability ([5]; 1.5 hours) | peak area (254 nm), Human Serum Stability ([5]; 3 hours) | peak area (254 nm), Human Serum Stability ([5]; 4.5 hours) | peak area (254 nm), Human Serum Stability ([5]; 17 hours) | peak area (254 nm), Phosphate Buffer pH = 7.4 Stability ([7]; 0 hours) | peak area (254 nm), Phosphate Buffer pH = 7.4 Stability ([7]; 1.5 hours) | peak area (254 nm), Phosphate Buffer pH = 7.4 Stability ([7]; 3 hours) | peak area (254 nm), Phosphate Buffer pH = 7.4 Stability ([7]; 4.5 hours) | peak area (254 nm), Phosphate Buffer pH = 7.4 Stability ([7]; 17 hours) | further results
CC(=O)OC[n+]1c(-c2ccc(C)cc2)cn2c3c(sc21)CCCC3 [BG] | > 20.8 | > 20.8 | – | – | – | – | – | – | – | – | – | – | – | –
Cc1ccc(-c2cn3c4c(sc3[n+]2COC(=O)c2ccc(CN(CP(=O)(O)O)CP(=O)(O)O)cc2)CCCC4)cc1 [BH] | > 20.8 | 3.23 | almost identical to that of (BC) | – | – | – | – | – | – | – | – | – | – | (BH) extractable with methanol from hydroxyapatite ([2]; 34 hours): no detectable; prodrug cleavage product PFT-β, percent of the 1.26 μMoles sorbed ([2]; 34 hours): 19.6%; (BH) extractable with methanol from hydroxyapatite ([2]; 105 hours): no detectable; prodrug cleavage product PFT-β, percent of the 1.26 μMoles sorbed ([2]; 105 hours): 29.1%; (BH) extractable with methanol from hydroxyapatite ([2]; 153 hours): no detectable; prodrug cleavage product PFT-β, percent of the 1.26 μMoles sorbed ([2]; 153 hours): 37.5%; (BH) extractable with methanol from hydroxyapatite ([2]; start, after washes): no detectable; prodrug cleavage product PFT-β, percent of the 1.26 μMoles sorbed ([2]; start, after washes): < 7%; originally present (BH) bound to the hydroxyapatite solid ([4]; 1.9 mM in 5 mM phosphate buffer pH 7, approx. 25 mg hydroxyapatite, 15 minutes): 77%; originally present (BH) in the supernatant, wash number 1 ([4]; 900 μL de-ionized water wash 1): 3.5%; originally present (BH) in the supernatant, wash number 2 ([4]; 900 μL de-ionized water wash 2): 0.6%; (BH) remained in the supernatant solution ([4]; after 15 minutes with hydroxyapatite): 23%; (BH) adsorbed to the hydroxyapatite so as to resist washing off ([4]; of original 1.74 μMoles): 1.26 µmol; total recovered in the original supernatant plus the two water washes ([4]; of original 1.74 μMoles): 0.48 µmol
Cc1ccc(C(=O)Cn2c3c(sc2=N)CCCC3)cc1 [PFT-α, 2-[2-imino-4,5,6,7-tetrahydro-1,3-benzothiazol-3(2H)-yl]-1-(4-methylphenyl)-1-ethanone] | – | – | – | 547169 | 312351 | 156823 | 118842 | 7927 | 584109 | 448284 | 303800 | 227004 | 18724 | time in which half of PFT-α is converted to PFT-β ([5]; human serum, initial 50 μMolar): about 3 hours; inhibition of apoptosis induced by doxorubicin, etoposide, paclitaxel, cytosine arabinoside, UV light, and gamma radiation ([6]; 10 micromolar concentration): inhibited apoptosis; protection on pretreatment of cells and removal of the compound before the stress-inducing event ([6]; pretreatment, compound removed before stress): no significant protection; time in which half of PFT-α is converted to PFT-β ([7]; phosphate buffer, initial 50 μMolar): about 1.8 hours; tumors or pathological lesions in gamma-irradiated survivors ([8]; 7 months post-irradiation): No tumors or pathological lesions; rescue from 60% killing doses of gamma radiation ([8]; single intraperitoneal injection 2.2 mg/kg, 8 Gy C57BL, 6 Gy Balb/c): completely rescued; weight-loss versus controls ([8]; treated irradiated animals): less weight-loss than controls; protective effect in p53-null mice treated with radiation (p53-null mice): no protective effect
Cc1ccc(-c2cn3c4c(sc3n2)CCCC4)cc1 [PFT-β, 2-p-Tolyl-5,6,7,8-tetrahydro-benzo[d]imidazo[2,1-b]thiazole] | – | – | – | 13781 | 259004 | 448826 | 512198 | 696098 | 13032 | 176201 | 307793 | 427152 | 601840 | biological activity (inhibition of p53-mediated transcription) [9]: biologically active; aqueous solubility (Aqueous solubility): about 3 μMolar
Phenyphosphonic acid [BK] | – | – | no observable affinity | – | – | – | – | – | – | – | – | – | – | –
